Molecules are shown by their SMILES.

By IC50 is commonly meant the point on the concentration scale where inhibition reaches its midpoint.

T1 sequence (O60674 828-1132): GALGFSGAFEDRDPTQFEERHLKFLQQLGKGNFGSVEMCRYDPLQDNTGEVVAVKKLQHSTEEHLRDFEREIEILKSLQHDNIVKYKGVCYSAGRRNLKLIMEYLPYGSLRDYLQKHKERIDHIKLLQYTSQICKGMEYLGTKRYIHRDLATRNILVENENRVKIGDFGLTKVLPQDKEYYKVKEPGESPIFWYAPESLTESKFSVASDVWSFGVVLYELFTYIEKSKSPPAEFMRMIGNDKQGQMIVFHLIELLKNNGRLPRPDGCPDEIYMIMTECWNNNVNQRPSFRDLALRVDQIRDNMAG

This experiment concerns the target T1, human JAK2 (Homo sapiens, UniProt O60674).
T1 construct: JAK2 (a.a. 828-1132); His tag (N); made in house; host or cells: insect cells (baculovirus)
As to the kind of experiment: In vitro JAK kinase assay (HTRF, phosphorylation of biotinylated peptide). Type of experiment: biochemical. The following applies: catalytic domain a.a. 828-1132, 30 μM ATP, 500 nM peptide, room temperature 1 hr; read-out: JAK-2 IC50. The procedure, abridged: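 IC50 from HTRF detection (Eu-Py20 antibody, SA-APC) of biotinylated-peptide phosphorylation (500 nM), run 1 h at RT. Enzyme: N-His human JAK2 kinase domain a.a. 828-1132 from insect cells; ATP 30 μM; buffer 50 mM Tris pH 7.8 with NaCl, DTT, BSA.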
In the case of `CC(=O)N1CCN(C(=O)c2ccc(Nc3nccc(-c4cnn(C(CC#N)C5CCCC5)c4)n3)cc2)CC1` (racemic) [Example 224, 3-(4-(2-(4-(4-acetylpiperazine-1-carbonyl)phenylamino)pyrimidin-4-yl)-1H-pyrazol-1-yl)-3-cyclopentylpropanenitrile], the IC50 is < 100 nM.
In the case of `CN1CCC(NC(=O)c2ccc(Nc3nccc(-c4cnn(C(CC#N)C5CCCC5)c4)n3)cc2)CC1` (racemic) [Example 227, 4-(4-(1-(2-cyano-1-cyclopentylethyl)-1H-pyrazol-4-yl)pyrimidin-2-ylamino)-N-(1-methylpiperidin-4-yl)benzamide], the IC50 is < 100 nM.
Consider `N#CCC(C1CCCC1)n1cc(-c2ccnc(Nc3ccc(C(=O)N4CCC5(CC4)CNC(=O)C5)cc3)n2)cn1` (racemic) [Example 228, 3-cyclopentyl-3-(4-(2-(4-(3-oxo-2,8-diazaspiro[4.5]decane-8-carbonyl)phenylamino)pyrimidin-4-yl)-1H-pyrazol-1-yl)propanenitrile], for which the IC50 was < 100 nM.
Next, `CCOC(=O)N1CCC(NC(=O)c2ccc(Nc3nccc(-c4cnn(C(CC#N)C5CCCC5)c4)n3)cc2)CC1` (racemic) [Example 231, Ethyl 4-(4-(4-(1-(2-cyano-1-cyclopentylethyl)-1H-pyrazol-4-yl)pyrimidin-2-ylamino)benzamido)piperidine-1-carboxylate]: < 100 nM.
Next, `CN(C)C(=O)C1CCN(C(=O)c2ccc(Nc3nccc(-c4cnn(C(CC#N)C5CCCC5)c4)n3)cc2)CC1` (racemic) [Example 234, 1-(4-(4-(1-(2-cyano-1-cyclopentylethyl)-1H-pyrazol-4-yl)pyrimidin-2-ylamino)benzoyl)-N,N-dimethylpiperidine-4-carboxamide]: < 100 nM; `CN1CCN(CC(=O)Nc2cccc(Nc3nccc(-c4cnn(C(CC#N)C5CCCC5)c4)n3)c2)CC1` (racemic) [Example 236, N-(3-(4-(1-(2-cyano-1-cyclopentylethyl)-1H-pyrazol-4-yl)pyrimidin-2-ylamino)phenyl)-2-(4-methylpiperazin-1-yl)acetamide]: < 100 nM; `N#CCC(C1CCCC1)n1cc(-c2ccnc(Nc3cccc(NC(=O)CN4CCNC(=O)C4)c3)n2)cn1` (racemic) [Example 238, N-(3-(4-(1-(2-cyano-1-cyclopentylethyl)-1H-pyrazol-4-yl)pyrimidin-2-ylamino)phenyl)-2-(3-oxopiperazin-1-yl)acetamide]: < 100 nM.
Next, `N#CCC(C1CCCC1)n1cc(-c2ccnc(Nc3cccc(NC(=O)CN4CCC(O)CC4)c3)n2)cn1` (racemic) [Example 239, N-(3-(4-(1-(2-cyano-1-cyclopentylethyl)-1H-pyrazol-4-yl)pyrimidin-2-ylamino)phenyl)-2-(4-hydroxypiperidin-1-yl)acetamide]: < 100 nM; `N#CCC(C1CCCC1)n1cc(-c2ccnc(Nc3cccc(NC(=O)CN4CCN(CCO)CC4)c3)n2)cn1` (racemic) [Example 240, N-(3-(4-(1-(2-cyano-1-cyclopentylethyl)-1H-pyrazol-4-yl)pyrimidin-2-ylamino)phenyl)-2-(4-(2-hydroxyethyl)piperazin-1-yl)acetamide]: < 100 nM.
On to `N#CCC(C1CCCC1)n1cc(-c2ccnc(Nc3cccc(NC(=O)CNCC4CC4)c3)n2)cn1` (racemic) [Example 241, N-(3-(4-(1-(2-cyano-1-cyclopentylethyl)-1H-pyrazol-4-yl)pyrimidin-2-ylamino)phenyl)-2-(cyclopropylmethylamino)acetamide], for which the IC50 is < 100 nM.
Next, `N#CCC(C1CCCC1)n1cc(-c2ccnc(Nc3cccc(NC(=O)CN4CCOCC4)c3)n2)cn1` (racemic) [Example 242, N-(3-(4-(1-(2-cyano-1-cyclopentylethyl)-1H-pyrazol-4-yl)pyrimidin-2-ylamino)phenyl)-2-morpholinoacetamide]: < 100 nM.
Next, `CCNCC(=O)Nc1cccc(Nc2nccc(-c3cnn(C(CC#N)C4CCCC4)c3)n2)c1` (racemic) [Example 243, N-(3-(4-(1-(2-cyano-1-cyclopentylethyl)-1H-pyrazol-4-yl)pyrimidin-2-ylamino)phenyl)-2-(ethylamino)acetamide]: < 100 nM; `N#CCC(C1CC1)n1cc(-c2ccnc(Nc3ccc(C(=O)N4CCC(O)CC4)cc3)n2)cn1` (racemic) [Example 251, 3-cyclopropyl-3-(4-(2-(4-(4-hydroxypiperidine-1-carbonyl)phenylamino)pyrimidin-4-yl)-1H-pyrazol-1-yl)propanenitrile]: < 100 nM; `N#CCC(C1CC1)n1cc(-c2ccnc(Nc3ccc(C(=O)N4[C@@H]5CC[C@H]4C[C@@H](O)C5)cc3)n2)cn1` (mixture of isomers) [Example 252, 3-cyclopropyl-3-(4-(2-(4-((3-endo)-3-hydroxy-8-azabicyclo[3.2.1]octane-8-carbonyl)phenylamino)pyrimidin-4-yl)-1H-pyrazol-1-yl)propanenitrile]: < 100 nM.
Turning to `N#CCC(C1CC1)n1cc(-c2ccnc(Nc3ccc(C(=O)N4CCCC4)cc3)n2)cn1` (racemic) [Example 253, 3-cyclopropyl-3-(4-(2-(4-(pyrrolidine-1-carbonyl)phenylamino)pyrimidin-4-yl)-1H-pyrazol-1-yl)propanenitrile], the IC50 was < 100 nM.
On to `N#CCC(C1CC1)n1cc(-c2ccnc(Nc3ccc(C(=O)NC4CCOCC4)cc3)n2)cn1` (racemic) [Example 254, 4-(4-(1-(2-cyano-1-cyclopropylethyl)-1H-pyrazol-4-yl)pyrimidin-2-ylamino)-N-(tetrahydro-2H-pyran-4-yl)benzamide], for which the IC50 is < 100 nM.
`N#CCC(C1CC1)n1cc(-c2ccnc(Nc3ccc(C(=O)N4CCOCC4)cc3)n2)cn1` (racemic) [Example 260, 3-cyclopropyl-3-(4-(2-(4-(morpholine-4-carbonyl)phenylamino)pyrimidin-4-yl)-1H-pyrazol-1-yl)propanenitrile]: the IC50 is < 100 nM.
To `N#CCC(C1CC1)n1cc(-c2ccnc(Nc3ccc(C(=O)N4CCC4)cc3)n2)cn1` (racemic) [Example 261, 3-(4-(2-(4-(azetidine-1-carbonyl)phenylamino)pyrimidin-4-yl)-1H-pyrazol-1-yl)-3-cyclopropylpropanenitrile] belongs < 100 nM; to `N#CCC(C1CC1)n1cc(-c2ccnc(Nc3ccc(C(=O)N4C5CC6CC4CC(C5)O6)cc3)n2)cn1` (racemic) [Example 262, 3-cyclopropyl-3-(4-(2-(4-(2-oxa-6-azatricyclo[3.3.1.1(3,7)]dec-6-ylcarbonyl)phenyl)aminopyrimidin-4-yl)-1H-pyrazol-1-yl)propanenitrile], < 100 nM.
Next, `COC1CCN(C(=O)c2ccc(Nc3nccc(-c4cnn(C(CC#N)C5CC5)c4)n3)cc2)CC1` (racemic) [Example 263, 3-cyclopropyl-3-(4-(2-(4-(4-methoxypiperidine-1-carbonyl)phenylamino)pyrimidin-4-yl)-1H-pyrazol-1-yl)propanenitrile]: < 100 nM; `CN1CCN(C(=O)c2ccc(Nc3nccc(-c4cnn(C(CC#N)C5CC5)c4)n3)cc2)CC1` (racemic) [Example 267, 3-cyclopropyl-3-(4-(2-(4-(4-methylpiperazine-1-carbonyl)phenylamino)pyrimidin-4-yl)-1H-pyrazol-1-yl)propanenitrile]: < 100 nM; `CC(=O)N1CCN(C(=O)c2ccc(Nc3nccc(-c4cnn(C(CC#N)C5CC5)c4)n3)cc2)CC1` (racemic) [Example 269, 3-(4-(2-(4-(4-acetylpiperazine-1-carbonyl)phenylamino)pyrimidin-4-yl)-1H-pyrazol-1-yl)-3-cyclopropylpropanenitrile]: < 100 nM.
Next, `CCOC(=O)N1CCC(NC(=O)c2ccc(Nc3nccc(-c4cnn(C(CC#N)C5CC5)c4)n3)cc2)CC1` (racemic) [Example 272, Ethyl 4-(4-(4-(1-(2-cyano-1-cyclopropylethyl)-1H-pyrazol-4-yl)pyrimidin-2-ylamino)benzoyl)aminopiperidine-1-carboxylate]: < 100 nM; `CCS(=O)(=O)N1CC(CC#N)(n2cc(-c3ccnc(Nc4ccc(C(=O)N5CCC(N(C)C)C5)cc4)n3)cn2)C1` (racemic) [Example 282, 2-(3-(4-(2-(4-(3-(dimethylamino)pyrrolidine-1-carbonyl)phenylamino)pyrimidin-4-yl)-1H-pyrazol-1-yl)-1-(ethylsulfonyl)azetidin-3-yl)acetonitrile]: < 100 nM.
Take `COc1cnc(Nc2ccc(C(=O)N3CCOCC3)cc2)nc1-c1cnn(C(CC#N)C2CCCC2)c1` (racemic) [Example 302, 3-cyclopentyl-3-(4-(5-methoxy-2-(4-(morpholine-4-carbonyl)phenylamino)pyrimidin-4-yl)-1H-pyrazol-1-yl)propanenitrile]: the IC50 was < 100 nM.
On to `COc1cnc(Nc2ccc(C(=O)N3CCCC3)cc2)nc1-c1cnn(C(CC#N)C2CCCC2)c1` (racemic) [Example 303, 3-cyclopentyl-3-(4-(5-methoxy-2-(4-(pyrrolidine-1-carbonyl)phenylamino)pyrimidin-4-yl)-1H-pyrazol-1-yl)propanenitrile], for which the IC50 was < 100 nM.
Next, `COc1cnc(Nc2ccc(C(=O)N3CCN(C)CC3)cc2)nc1-c1cnn(C(CC#N)C2CCCC2)c1` (racemic) [Example 304, 3-cyclopentyl-3-(4-(5-methoxy-2-(4-(4-methylpiperazine-1-carbonyl)phenylamino)pyrimidin-4-yl)-1H-pyrazol-1-yl)propanenitrile]: < 100 nM.
To `COc1cnc(Nc2ccc(C(=O)NC3CCOCC3)cc2)nc1-c1cnn(C(CC#N)C2CCCC2)c1` (racemic) [Example 305, 4-(4-(1-(2-cyano-1-cyclopentylethyl)-1H-pyrazol-4-yl)-5-methoxypyrimidin-2-ylamino)-N-(tetrahydro-2H-pyran-4-yl)benzamide] belongs < 100 nM.

(Values after patent US8309718B2, “4-pyrazolyl-N-arylpyrimidin-2-amines and 4-pyrazolyl-N-heteroarylpyrimidin-2-amines as janus kinase inhibitors” (Incyte Corporation, priority 2007, dated 2012).)
